Reference: patent publication US20250195521A1 (Revolution Medicines, Inc., priority 2020, published 2025)
Like-named read-outs stand apart in the source and are kept apart here.

Columns and labels:
[1] = test system: NCI-H358 cells (K-Ras G12C); assay: CellTiter-Glo cell viability, NCI-H358; assay type: cell-based, human; conditions: K-Ras G12C, 5-day treatment, read-out: H358 Cell Viability IC50
Procedure, shortened: (§1)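 Five-day treatment of K-Ras mutant cells with directly dispensed compound; ATP-based luminescence endpoint. Percent of DMSO signal fit to four-parameter logistic curve.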

[2] = test system: Capan-1 cells (K-Ras G12V); assay: CellTiter-Glo cell viability, Capan-1; assay type: cell-based, human; conditions: K-Ras G12V, 5-day treatment, read-out: Capan-1 Cell Viability IC50
Procedure, shortened: as §1

KRAS G12C = KRAS G12C (Homo sapiens (Human), UniProt P01116+P62937, G12C); assay: Ras-Raf disruption/FRET/MOA assay (BRAF RBD, Cyclophilin A); assay type: biochemical; conditions: read-out: KRAS G12C FRET IC50
Procedure, shortened: (§2)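 TR-FRET read after 1.5 h with 10 nM anti-His Eu-W1024 and 50 nM anti-GST APC, following 3 h at 25 °C of GMPPNP-loaded His6-Ras (12.5 nM), GST-BRAF RBD (50 nM) and Cyclophilin A (25 μM) with compound from 30 μM final, 10 points, 3-fold. IC50 reported; pH 7.3 HEPES, 100 mM NaCl.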

KRAS G12D = KRAS G12D (Homo sapiens (Human), UniProt P01116+P62937, G12D); assay: as above; assay type: biochemical; conditions: read-out: KRAS G12D FRET IC50
Procedure, shortened: as §2

KRAS G12S = KRAS G12S (Homo sapiens (Human), UniProt P01116+P62937, G12S); assay: as above; assay type: biochemical; conditions: read-out: KRAS G12S FRET IC50
Procedure, shortened: as §2

KRAS G12V = KRAS G12V (Homo sapiens (Human), UniProt P01116+P62937, G12V); assay: as above; assay type: biochemical; conditions: read-out: KRAS G12V FRET IC50
Procedure, shortened: as §2

KRAS G13C = KRAS G13C (Homo sapiens (Human), UniProt P01116+P62937, G13C); assay: as above; assay type: biochemical; conditions: read-out: KRAS G13C FRET IC50
Procedure, shortened: as §2

KRAS G13D = KRAS G13D (Homo sapiens (Human), UniProt P01116+P62937, G13D); assay: as above; assay type: biochemical; conditions: read-out: KRAS G13D FRET data IC50
Procedure, shortened: as §2

KRAS WT = KRAS WT (Homo sapiens (Human), UniProt P01116+P62937); assay: as above; assay type: biochemical; conditions: read-out: KRAS WT FRET data IC50
Procedure, shortened: as §2

NRAS G12C = NRAS G12C (Homo sapiens (Human), UniProt P01111+P62937, G12C); assay: as above; assay type: biochemical; conditions: read-out: NRAS G12C FRET data IC50
Procedure, shortened: (§3)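 TR-FRET readout: anti-His Eu-W1024 (10 nM) and anti-GST allophycocyanin (50 nM) added after 3 h, 25° C compound incubation, then 1.5 h more. Decrease in FRET ratio versus DMSO wells marks Ras:RAF disruption; IC50 reported.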

NRAS Q61R = NRAS Q61R (Homo sapiens (Human), UniProt P01111+P62937, Q61R); assay: as above; assay type: biochemical
Procedure, shortened: as §3

NRAS WT = NRAS WT (Homo sapiens (Human), UniProt P01111+P62937); assay: as above; assay type: biochemical
Procedure, shortened: as §3

[3] = test system: K-Ras G12C (NCI-H358 cells); assay: Potency assay: pERK in NCI-H358 cells; assay type: cell-based, human; conditions: Homo sapiens; NCI-H358 cells, 4 hours; read-out: pERK EC50 (H358 KRAS G12C)
Procedure, shortened: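 Cells plated the day before were exposed for 4 h at 37° C, 5% CO2 to a 10-point, 3-fold DMSO dilution series (10 mM top stock), in duplicate. Phospho-ERK was read by AlphaLISA SureFire Ultra or by In-Cell Western with DRAQ5 DNA stain, and IC50 came from a 4-parameter sigmoidal fit.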

KRAS Q61H = KRAS Q61H (Homo sapiens (Human), UniProt P01116+P62937, Q61H); assay: Ras-Raf disruption/FRET/MOA assay (BRAF RBD, Cyclophilin A); assay type: biochemical
Procedure, shortened: as §2

NCI-H358 (K-Ras G12C) = assay: CellTiter-Glo cell viability assay, NCI-H358; assay type: cell-based, human; conditions: Homo sapiens, NCI-H358, 120 h, 5-day treatment; read-out: H358 Cell Viability assay data (K-Ras G12C, IC50)
Procedure, shortened: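 Five-day compound treatment of NCI-H358 cells, then CellTiter-Glo luminescence, percent of DMSO, four-parameter logistic fit.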

[4] = biological target: K-Ras G12C(GMP-PNP) binding to BRAF RBD (Homo sapiens (Human), UniProt P01116+P62937, G12C); assay: Disruption of BRAF RBD interaction with K-Ras (FRET / MOA assay), K-Ras G12C; assay type: biochemical; conditions: read-out: KRAS G12C FRET IC50
Procedure, shortened: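 TR-FRET readout: after 3 h compound incubation at 25 °C, anti-His Eu and anti-GST allophycocyanin (10 and 50 nM final) added for a further 1.5 h. Dilution series was 10-point, 3-fold, top 30 μM final. Ras–cyclophilin A ternary complex formation blocks the BRAF RBD interaction; IC50 derived from reduced FRET ratio relative to DMSO.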

Sequence of NRAS Q61R (P01111 whole entry Q61R): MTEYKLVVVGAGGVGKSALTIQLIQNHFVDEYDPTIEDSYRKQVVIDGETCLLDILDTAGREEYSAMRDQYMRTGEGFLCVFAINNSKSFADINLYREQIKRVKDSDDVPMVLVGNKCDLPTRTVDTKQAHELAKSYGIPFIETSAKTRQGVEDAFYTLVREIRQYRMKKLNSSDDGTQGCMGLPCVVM
Sequence of NRAS Q61R (P62937 whole entry): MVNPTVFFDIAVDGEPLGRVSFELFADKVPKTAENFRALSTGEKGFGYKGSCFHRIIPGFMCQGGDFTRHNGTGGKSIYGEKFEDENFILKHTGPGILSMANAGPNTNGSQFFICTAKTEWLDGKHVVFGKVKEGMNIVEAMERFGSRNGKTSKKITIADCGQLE
Sequence of KRAS G12D (P01116 other isoform, or with tags, fused parts or gaps G12D): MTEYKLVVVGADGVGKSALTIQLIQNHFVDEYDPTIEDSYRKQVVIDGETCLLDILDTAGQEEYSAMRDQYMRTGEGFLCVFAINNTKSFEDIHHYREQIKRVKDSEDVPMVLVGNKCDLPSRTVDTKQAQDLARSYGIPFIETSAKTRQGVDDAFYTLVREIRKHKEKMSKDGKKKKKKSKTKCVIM
Sequence of KRAS G12D (P62937 whole entry): as the sequence (P62937 whole entry) above
Sequence of NRAS G12C (P01111 whole entry G12C): as the sequence (P01111 whole entry Q61R) above, with G12C, R61Q counted along it
Sequence of NRAS G12C (P62937 whole entry): as the sequence (P62937 whole entry) above
Sequence of KRAS WT (P01116 other isoform, or with tags, fused parts or gaps): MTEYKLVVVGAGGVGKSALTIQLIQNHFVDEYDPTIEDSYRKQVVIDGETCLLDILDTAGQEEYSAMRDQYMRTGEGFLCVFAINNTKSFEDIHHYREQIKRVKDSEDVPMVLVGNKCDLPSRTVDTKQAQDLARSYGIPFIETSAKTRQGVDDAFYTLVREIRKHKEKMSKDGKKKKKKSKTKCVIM
Sequence of KRAS WT (P62937 whole entry): as the sequence (P62937 whole entry) above
Sequence of KRAS G13C (P01116 other isoform, or with tags, fused parts or gaps G13C): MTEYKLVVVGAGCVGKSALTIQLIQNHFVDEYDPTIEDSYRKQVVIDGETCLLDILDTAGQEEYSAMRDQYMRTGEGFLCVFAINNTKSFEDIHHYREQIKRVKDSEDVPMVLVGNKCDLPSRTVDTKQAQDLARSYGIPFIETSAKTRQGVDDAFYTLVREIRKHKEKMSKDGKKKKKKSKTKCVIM
Sequence of KRAS G13C (P62937 whole entry): as the sequence (P62937 whole entry) above
Sequence of NRAS WT (P01111 whole entry): as the sequence (P01111 whole entry Q61R) above, with R61Q counted along it
Sequence of NRAS WT (P62937 whole entry): as the sequence (P62937 whole entry) above
Sequence of KRAS G12V (P01116 other isoform, or with tags, fused parts or gaps G12V): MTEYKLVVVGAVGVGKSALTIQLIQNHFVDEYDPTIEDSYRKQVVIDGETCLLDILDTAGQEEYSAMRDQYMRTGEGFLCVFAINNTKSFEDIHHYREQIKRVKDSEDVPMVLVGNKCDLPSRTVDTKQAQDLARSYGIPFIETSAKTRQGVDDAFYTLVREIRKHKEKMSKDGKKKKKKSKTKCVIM
Sequence of KRAS G12V (P62937 whole entry): as the sequence (P62937 whole entry) above
Sequence of KRAS G12S (P01116 other isoform, or with tags, fused parts or gaps G12S): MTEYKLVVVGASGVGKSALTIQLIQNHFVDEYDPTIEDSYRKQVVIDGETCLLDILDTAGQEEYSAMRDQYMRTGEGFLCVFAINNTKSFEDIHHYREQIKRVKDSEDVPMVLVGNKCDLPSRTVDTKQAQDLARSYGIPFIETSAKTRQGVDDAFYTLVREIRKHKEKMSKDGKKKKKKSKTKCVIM
Sequence of KRAS G12S (P62937 whole entry): as the sequence (P62937 whole entry) above
Sequence of KRAS Q61H (P01116 other isoform, or with tags, fused parts or gaps Q61H): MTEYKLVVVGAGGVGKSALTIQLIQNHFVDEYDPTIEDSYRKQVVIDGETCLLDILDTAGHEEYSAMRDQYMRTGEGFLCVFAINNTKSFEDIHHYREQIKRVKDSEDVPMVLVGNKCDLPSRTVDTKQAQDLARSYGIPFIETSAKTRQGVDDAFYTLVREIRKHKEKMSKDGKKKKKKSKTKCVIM
Sequence of KRAS Q61H (P62937 whole entry): as the sequence (P62937 whole entry) above
Sequence of KRAS G13D (P01116 other isoform, or with tags, fused parts or gaps G13D): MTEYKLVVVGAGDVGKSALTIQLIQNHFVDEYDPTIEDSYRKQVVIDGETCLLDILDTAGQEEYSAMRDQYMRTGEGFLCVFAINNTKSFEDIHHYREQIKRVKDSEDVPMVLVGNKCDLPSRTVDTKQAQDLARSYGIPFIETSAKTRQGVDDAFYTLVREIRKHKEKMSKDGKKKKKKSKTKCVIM
Sequence of KRAS G13D (P62937 whole entry): as the sequence (P62937 whole entry) above
Sequence of KRAS G12C (P01116-2 other isoform, or with tags, fused parts or gaps G12C): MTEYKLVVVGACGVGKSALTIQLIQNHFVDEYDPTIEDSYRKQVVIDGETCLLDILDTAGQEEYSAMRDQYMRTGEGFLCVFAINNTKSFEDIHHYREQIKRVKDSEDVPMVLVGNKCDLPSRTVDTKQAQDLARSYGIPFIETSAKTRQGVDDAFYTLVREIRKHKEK
Sequence of KRAS G12C (P62937 whole entry): as the sequence (P62937 whole entry) above
Sequence of K-Ras G12C(GMP-PNP) binding to BRAF RBD (P01116 other isoform, or with tags, fused parts or gaps G12C): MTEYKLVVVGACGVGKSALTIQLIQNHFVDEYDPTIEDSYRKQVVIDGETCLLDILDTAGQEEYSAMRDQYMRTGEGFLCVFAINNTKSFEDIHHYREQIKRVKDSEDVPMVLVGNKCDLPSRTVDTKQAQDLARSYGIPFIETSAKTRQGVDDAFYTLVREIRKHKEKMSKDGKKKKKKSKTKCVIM
Sequence of K-Ras G12C(GMP-PNP) binding to BRAF RBD (P62937 whole entry): as the sequence (P62937 whole entry) above

Row | Structure (SMILES) | IC50 ([1]; Homo sapiens, NCI-H358, 120 h) [nM] | IC50 ([2]; Homo sapiens, CAPAN-1, 120 h) [nM] | IC50 (KRAS G12C) [nM] | IC50 (KRAS G12D) [nM] | IC50 (KRAS G12S) [nM] | IC50 (KRAS G12V) [nM] | IC50 (KRAS G13C) [nM] | IC50 (KRAS G13D) [nM] | IC50 (KRAS WT) [nM] | IC50 (NRAS G12C) [nM] | IC50 (NRAS Q61R) [nM] | IC50 (NRAS WT) [nM] | EC50 [3] [nM] | IC50 (KRAS Q61H) [nM] | IC50 (NCI-H358 (K-Ras G12C)) [nM] | IC50 [4] [nM] | IC50 [1] [nM] | IC50 [2] [nM]
1 | CCn1c(-c2cccnc2[C@H](C)OC)c2c3cc(ccc31)-c1csc(n1)C[C@H](NC(=O)[C@H](C(C)C)N(C)C(=O)N1CC3(CN(C)C3)C1)C(=O)N1CCC[C@H](N1)C(=O)OCC(C)(C)C2 [Compound A268] | 100 to 1000 | 100 to 1000 | 100 to 1000 | 100 to 1000 | 100 to 1000 | 100 to 1000 | 100 to 1000 | 100 to 1000 | 100 to 1000 | 10 to 100 | 100 to 1000 | 100 to 1000 | < 5000 | – | – | – | – | –
2 | CCn1c(-c2cccnc2[C@H](C)OC)c2c3cc(ccc31)-c1csc(n1)C[C@H](NC(=O)[C@H](C(C)C)N(C)C(=O)N1CC(C(C)(C)O)C1)C(=O)N1CCC[C@H](N1)C(=O)OCC(C)(C)C2 [Compound A289] | – | 10 to 100 | 10 to 100 | 100 to 1000 | 100 to 1000 | 100 to 1000 | 100 to 1000 | 100 to 1000 | 100 to 1000 | 10 to 100 | 100 to 1000 | 100 to 1000 | – | 10 to 100 | – | – | – | –
3 | CCn1c(-c2cccnc2[C@H](C)OC)c2c3cc(ccc31)-c1csc(n1)C[C@H](NC(=O)[C@H](C(C)C)N(C)C(=O)N1CC[C@@H]1C)C(=O)N1CCC[C@H](N1)C(=O)OCC(C)(C)C2 [Compound A304] | – | 10 to 100 | 10 to 100 | 100 to 1000 | 100 to 1000 | 100 to 1000 | 100 to 1000 | 100 to 1000 | 100 to 1000 | 10 to 100 | – | 10 to 100 | – | 10 to 100 | – | – | – | –
4 | CCn1c(-c2cccnc2[C@H](C)OC)c2c3cc(ccc31)-c1csc(n1)C[C@H](NC(=O)[C@H](C(C)C)N(C)C(=O)N1C[C@H]3COC[C@H]3C1)C(=O)N1CCC[C@H](N1)C(=O)OCC(C)(C)C2 [Compound A312] | 10 to 100 | 10 to 100 | 10 to 100 | 100 to 1000 | 10 to 100 | 100 to 1000 | 100 to 1000 | 100 to 1000 | 10 to 100 | 10 to 100 | – | 10 to 100 | – | 10 to 100 | > 10000 | > 10000 | – | –
5 | CCn1c(-c2cccnc2[C@H](C)OC)c2c3cc(ccc31)-c1csc(n1)C[C@H](NC(=O)N1CCC1)C(=O)N1CCC[C@H](N1)C(=O)OCC(C)(C)C2 [Compound A369] | – | – | 100 to 1000 | 1000 to 10000 | 100 to 1000 | 100 to 1000 | 100 to 1000 | 100 to 1000 | – | – | 100 to 1000 | – | – | 100 to 1000 | – | – | 100 to 1000 | 100 to 1000
6 | CCn1c(-c2cccnc2[C@H](C)OC)c2c3cc(ccc31)-c1csc(n1)C[C@H](NC(=O)[C@H](C(C)C)N(C)C(=O)N1CCC1)C(=O)N1CCC[C@H](N1)C(=O)OCC(C)(C)C2 [Compound A399] | – | 10 to 100 | 10 to 100 | 100 to 1000 | 100 to 1000 | 10 to 100 | 100 to 1000 | 100 to 1000 | 100 to 1000 | 10 to 100 | – | 10 to 100 | – | 10 to 100 | – | – | – | –
